Measurements from ChEMBL document CHEMBL1201862, “PubChem BioAssay data set” (2004).
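Assay format: 96-well plates, 48-hour exposure. GI50: concentration for 50% inhibition of growth.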 The source made the active and inactive calls. No stated cut-off is given here; in the data, active = GI50 up to about 1.1 µM and inactive = higher.

Columns and labels:
Assay in all cases: NCI anticancer screen, dose series, 48 h
[1] = tested on: BT-549
[2] = tested on: OVCAR-4
[3] = tested on: TK-10
[4] = tested on: SF-539
[5] = tested on: HCT-15
[6] = tested on: IGROV-1
[7] = tested on: HOP-62
[8] = tested on: A549
[9] = tested on: M14
[10] = tested on: CAKI-1
[11] = tested on: SR
[12] = tested on: MCF7
[13] = tested on: HT-29
[14] = tested on: NCI-H226
[15] = tested on: KM12
[16] = tested on: RXF 393
[17] = tested on: A498

SMILES | GI50 [1] | GI50 [2] | GI50 [3] | GI50 [4] | GI50 [5] [µM] | GI50 [6] | GI50 [7] | GI50 [8] | GI50 [9] | GI50 [10] | GI50 [11] | GI50 [12] | GI50 [13] | GI50 [14] | GI50 [15] | GI50 [16] | GI50 [17]
COc1cc(/C=C2\C[C@H]3[C@@H]4CC=C5C[C@@H](OC(C)=O)CC[C@]5(C)[C@H]4CC[C@]3(C)\C2=N\O)cc(OC)c1OC | 5.01 µM (inactive) | 3.37 µM (inactive) | 13.7 µM (inactive) | 4.33 µM (inactive) | 4.42 | 10 µM (inactive) | 13.1 µM (inactive) | 4.69 µM (inactive) | 5.73 µM (inactive) | 3.33 µM (inactive) | 3.58 µM (inactive) | 4.2 µM (inactive) | 5.15 µM (inactive) | 8.45 µM (inactive) | 4.06 µM (inactive) | 0.942 µM (active) | –
COC(=O)c1cc(/C=C/C(=O)Cc2ccccc2)cn1S(=O)(=O)c1ccccc1 | > 100 µM (inactive) | > 100 µM (inactive) | > 100 µM (inactive) | > 100 µM (inactive) | 7.38 | > 100 µM (inactive) | > 100 µM (inactive) | > 100 µM (inactive) | > 100 µM (inactive) | > 100 µM (inactive) | > 100 µM (inactive) | > 100 µM (inactive) | > 100 µM (inactive) | – | > 100 µM (inactive) | > 100 µM (inactive) | –
NC1=NCC(CN2CCCCC2)O1 (configuration not stated) | > 100 µM (inactive) | – | > 100 µM (inactive) | > 100 µM (inactive) | > 100 | > 100 µM (inactive) | > 100 µM (inactive) | > 100 µM (inactive) | > 100 µM (inactive) | > 100 µM (inactive) | > 100 µM (inactive) | > 100 µM (inactive) | > 100 µM (inactive) | > 100 µM (inactive) | > 100 µM (inactive) | > 100 µM (inactive) | –
NC1c2c(Br)sc(N3CCCC3)c2C(=O)C1O (configuration not stated) | > 50 µM (inactive) | > 50 µM (inactive) | > 50 µM (inactive) | > 50 µM (inactive) | > 50 | > 50 µM (inactive) | – | > 50 µM (inactive) | > 50 µM (inactive) | > 50 µM (inactive) | – | > 50 µM (inactive) | > 50 µM (inactive) | > 50 µM (inactive) | > 50 µM (inactive) | – | > 50 µM (inactive)
Cc1ccc(OCC2OC(n3cnc4c(N(C)C)nc(Br)nc43)CC2Oc2ccc(C)cc2)cc1 (configuration not stated) | > 100 µM (inactive) | > 100 µM (inactive) | > 100 µM (inactive) | > 100 µM (inactive) | > 100 | > 100 µM (inactive) | – | > 100 µM (inactive) | > 100 µM (inactive) | > 100 µM (inactive) | – | > 100 µM (inactive) | > 100 µM (inactive) | > 100 µM (inactive) | > 100 µM (inactive) | – | > 100 µM (inactive)
Nc1cc(CO)cc(Nc2nc3ccc(Cl)cc3c3[nH]c4ccccc4c23)c1 | 10.9 µM (inactive) | – | 6.05 µM (inactive) | 3.34 µM (inactive) | 3.92 | 1.54 µM (inactive) | 7.19 µM (inactive) | 3.2 µM (inactive) | 4.98 µM (inactive) | 2.69 µM (inactive) | 2.16 µM (inactive) | 0.67 µM (active) | 3.64 µM (inactive) | – | 4.98 µM (inactive) | – | –
CSc1nc(=O)n(CCC#N)nc1SC | 23.5 µM (inactive) | – | 40.2 µM (inactive) | > 100 µM (inactive) | 21.9 | > 100 µM (inactive) | > 100 µM (inactive) | > 100 µM (inactive) | 18.7 µM (inactive) | > 100 µM (inactive) | 32.8 µM (inactive) | 2.72 µM (inactive) | 51.6 µM (inactive) | 39.3 µM (inactive) | > 100 µM (inactive) | – | > 100 µM (inactive)
CC1CC(=O)N2CCCNC2=C1C#N (configuration not stated) | > 100 µM (inactive) | > 100 µM (inactive) | > 100 µM (inactive) | > 100 µM (inactive) | > 100 | > 100 µM (inactive) | > 100 µM (inactive) | > 100 µM (inactive) | > 100 µM (inactive) | > 100 µM (inactive) | > 100 µM (inactive) | > 100 µM (inactive) | > 100 µM (inactive) | > 100 µM (inactive) | > 100 µM (inactive) | > 100 µM (inactive) | –
O=C(/C=C/c1ccc(Cl)cc1)Oc1ccc(C=C2CCC/C(=C\c3ccc(OC(=O)/C=C/c4ccc(Cl)cc4)cc3)C2=O)cc1 | > 100 µM (inactive) | > 100 µM (inactive) | > 100 µM (inactive) | > 100 µM (inactive) | > 100 | > 100 µM (inactive) | > 100 µM (inactive) | > 100 µM (inactive) | > 100 µM (inactive) | > 100 µM (inactive) | – | > 100 µM (inactive) | > 100 µM (inactive) | > 100 µM (inactive) | > 100 µM (inactive) | > 100 µM (inactive) | > 100 µM (inactive)
O=C(CSCC(=O)N/N=C/c1ccncc1)N/N=C/c1ccncc1 | > 100 µM (inactive) | > 100 µM (inactive) | > 100 µM (inactive) | > 100 µM (inactive) | > 100 | > 100 µM (inactive) | > 100 µM (inactive) | > 100 µM (inactive) | > 100 µM (inactive) | > 100 µM (inactive) | – | > 100 µM (inactive) | > 100 µM (inactive) | > 100 µM (inactive) | > 100 µM (inactive) | > 100 µM (inactive) | > 100 µM (inactive)
Cc1ccc(S(=O)(=O)N2CCSCCSCCN(S(=O)(=O)c3ccc(C)cc3)CCN(S(=O)(=O)c3ccc(C)cc3)CC2)cc1 | > 100 µM (inactive) | > 100 µM (inactive) | > 100 µM (inactive) | > 100 µM (inactive) | > 100 | > 100 µM (inactive) | > 100 µM (inactive) | > 100 µM (inactive) | > 100 µM (inactive) | > 100 µM (inactive) | – | > 100 µM (inactive) | > 100 µM (inactive) | > 100 µM (inactive) | > 100 µM (inactive) | > 100 µM (inactive) | > 100 µM (inactive)
COc1ccc(/C=C2/CSCC3=C2N=C(S)NC3c2ccc(OC)c(OC)c2OC)c(OC)c1OC (configuration not stated) | – | 2.61 µM (inactive) | 26.2 µM (inactive) | 16.8 µM (inactive) | 25.7 | 20 µM (inactive) | 20.1 µM (inactive) | 24.8 µM (inactive) | 12.6 µM (inactive) | 36.6 µM (inactive) | < 0.01 µM (active) | 0.0798 µM (active) | 12.6 µM (inactive) | 35 µM (inactive) | 12.1 µM (inactive) | 14.4 µM (inactive) | 19 µM (inactive)
COc1ccc(/C=C2\Sc3nnc(CNc4ccc(Cl)cc4)n3N=C2c2cc(F)c(Cl)cc2Cl)cc1OC | – | 22.5 µM (inactive) | 86.7 µM (inactive) | > 100 µM (inactive) | 15.9 | > 100 µM (inactive) | > 100 µM (inactive) | – | 59.8 µM (inactive) | 23.6 µM (inactive) | 21 µM (inactive) | 23.9 µM (inactive) | 28.6 µM (inactive) | > 100 µM (inactive) | 83.8 µM (inactive) | 15.8 µM (inactive) | > 100 µM (inactive)
CC(=O)OC1CC[C@@]2(C)C(=CC[C@@H]3[C@@H]2CC[C@]2(C)C(OC(C)=O)[C@H](n4ccnc4)C[C@@H]32)C1 (some centres not stated) | – | 20.9 µM (inactive) | > 100 µM (inactive) | 15.3 µM (inactive) | 15.5 | 34.4 µM (inactive) | – | 35.3 µM (inactive) | 17.2 µM (inactive) | 49.1 µM (inactive) | 16.1 µM (inactive) | 16.4 µM (inactive) | 10.7 µM (inactive) | 36.6 µM (inactive) | 16.7 µM (inactive) | 30.2 µM (inactive) | 90.4 µM (inactive)
Cn1c(=N)n[n+]([O-])c2ccccc21 | 2.01 µM (inactive) | 1.94 µM (inactive) | 27.2 µM (inactive) | 1.5 µM (inactive) | – | 3.46 µM (inactive) | 2.52 µM (inactive) | 11.7 µM (inactive) | 1.95 µM (inactive) | 2.31 µM (inactive) | – | 1.8 µM (inactive) | 3.1 µM (inactive) | 13.4 µM (inactive) | 19 µM (inactive) | 19.6 µM (inactive) | –
N#C/C(=C/C=C/c1ccco1)C(N)=O | – | – | > 10 µM (inactive) | > 10 µM (inactive) | > 10 | > 10 µM (inactive) | > 10 µM (inactive) | – | > 10 µM (inactive) | > 10 µM (inactive) | – | > 10 µM (inactive) | > 10 µM (inactive) | > 10 µM (inactive) | > 10 µM (inactive) | > 10 µM (inactive) | –
CCN(CC)CCOC(NC(C)=O)(c1ccccc1)c1ccccc1 | – | > 100 µM (inactive) | > 100 µM (inactive) | > 100 µM (inactive) | > 100 | > 100 µM (inactive) | > 100 µM (inactive) | > 100 µM (inactive) | > 100 µM (inactive) | – | > 100 µM (inactive) | > 100 µM (inactive) | > 100 µM (inactive) | > 100 µM (inactive) | > 100 µM (inactive) | > 100 µM (inactive) | > 100 µM (inactive)
O=C1CCC[C@H]2O[C@@H](COC(=O)c3ccccc3)C[C@H]2O1 | – | > 100 µM (inactive) | – | > 100 µM (inactive) | > 100 | > 100 µM (inactive) | > 100 µM (inactive) | > 100 µM (inactive) | > 100 µM (inactive) | > 100 µM (inactive) | > 100 µM (inactive) | > 100 µM (inactive) | > 100 µM (inactive) | > 100 µM (inactive) | > 100 µM (inactive) | – | > 100 µM (inactive)
CP(C)(=S)P(C)(C)=S | > 100 µM (inactive) | > 100 µM (inactive) | > 100 µM (inactive) | > 100 µM (inactive) | > 100 | 78.5 µM (inactive) | > 100 µM (inactive) | > 100 µM (inactive) | > 100 µM (inactive) | > 100 µM (inactive) | > 100 µM (inactive) | > 100 µM (inactive) | > 100 µM (inactive) | > 100 µM (inactive) | – | > 100 µM (inactive) | –
